According to ChEMBL document CHEMBL4312022, “Design, synthesis, and biological evaluation of ligustrazine - betulin amino-acid/dipeptide derivatives as anti-tumor agents” (Eur J Med Chem, 2020):
Active and inactive are the calls of the source. The calls are words filed in the database; no cut-off is given here.

Key:
HeLa = assay: Antiproliferative activity against human HeLa cells assessed as reduction in cell viability after 72 hrs by MTT assay; type: functional, cell-based
HepG2 [1] = assay: Antiproliferative activity against human HepG2 cells assessed as reduction in cell viability after 72 hrs by MTT assay; type: functional, cell-based; conditions: HepG2, 72 h
BGC-823 = assay: Antiproliferative activity against human BGC823 cells assessed as reduction in cell viability after 72 hrs by MTT assay; type: functional, cell-based; conditions: BGC-823, 72 h
HT-29 = assay: Antiproliferative activity against human HT-29 cells assessed as reduction in cell viability after 72 hrs by MTT assay; type: functional, cell-based; conditions: HT-29, 72 h
MDCK = assay: Cytotoxicity against MDCK cells assessed as reduction in cell viability after 72 hrs by MTT assay; type: cell-based; conditions: Canis lupus familiaris
[2] = Selectivity index, ratio of IC50 for MDCK cells to IC50 for human HepG2 cells
[3] = Toxicity in zebrafish embryos assessed as mortality rate at 4 uM after 72 hrs (reference value: 3.33 +/- 4.71%); parameters: species or system Danio rerio; conditions: in vivo
[4] = Toxicity in zebrafish embryos assessed as malformation rate at 4 uM after 72 hrs (reference value: 0%); parameters: species or system Danio rerio; conditions: in vivo
[5] = Toxicity in zebrafish embryos assessed as body length at 4 uM after 72 hrs (reference value: 4165.80 +/- 64.98 micrometer); parameters: species or system Danio rerio; conditions: in vivo
[6] = Toxicity in zebrafish embryos assessed as effect on morphological changes at 4 uM after 72 hrs; parameters: species or system Danio rerio; conditions: in vivo
[7] = Toxicity in zebrafish embryos assessed as spinal cord bending at 4 uM after 72 hrs; parameters: species or system Danio rerio; conditions: in vivo
HepG2 [8] = assay: Induction of morphological changes in human HepG2 cells assessed as cell fragmentation at 8 uM after 72 hrs by giemsa staining based inverted microscopic analysis; type: functional
HepG2 [9] = assay: Induction of morphological changes in human HepG2 cells assessed as cell pyknosis at 8 uM after 72 hrs by giemsa staining based inverted microscopic analysis; type: functional
HepG2 [10] = assay: Induction of apoptosis in human HepG2 cells assessed as reduction in number of normal cell morphology at 2 to 8 uM after 72 hrs by giemsa staining based inverted microscopic analysis; type: functional
HepG2 [11] = assay: Induction of apoptosis in human HepG2 cells assessed as concentrated chromatin at 2 to 8 uM after 72 hrs by DAPI-staining based fluorescence microscopic analysis; type: functional, cell-based
HepG2 [12] = assay: Induction of apoptosis in human HepG2 cells assessed as nuclear fragmentation at 2 to 8 uM after 72 hrs by DAPI-staining based fluorescence microscopic analysis; type: functional, cell-based
HepG2 [13] = assay: Induction of apoptosis in human HepG2 cells assessed as reduction in number of cells up to 8 uM after 72 hrs by DAPI-staining based fluorescence microscopic analysis; type: functional, cell-based
HepG2 [14] = assay: Induction of apoptosis in human HepG2 cells assessed as increase in cell disruption up to 8 uM after 72 hrs by DAPI-staining based fluorescence microscopic analysis; type: functional
HepG2 [15] = assay: Induction of apoptosis in human HepG2 cells assessed as late apoptotic cells at 4 uM after 24 hrs by AnnexinV-FITC/PI-staining based flow cytometry (reference value: 4.5%); type: functional
HepG2 [16] = assay: Induction of apoptosis in human HepG2 cells assessed as early apoptotic cells at 4 uM after 24 hrs by AnnexinV-FITC/PI-staining based flow cytometry (reference value: 0.5%); type: functional
HepG2 [17] = assay: Induction of apoptosis in human HepG2 cells assessed as late apoptotic cells at 8 uM after 24 hrs by AnnexinV-FITC/PI-staining based flow cytometry (reference value: 4.5%); type: functional
HepG2 [18] = assay: Induction of apoptosis in human HepG2 cells assessed as early apoptotic cells at 8 uM after 24 hrs by AnnexinV-FITC/PI-staining based flow cytometry (reference value: 0.5%); type: functional
HepG2 [19] = assay: Induction of apoptosis in human HepG2 cells assessed as late apoptotic cells at 12 uM after 24 hrs by AnnexinV-FITC/PI-staining based flow cytometry (reference value: 4.5%); type: functional
HepG2 [20] = assay: Induction of apoptosis in human HepG2 cells assessed as early apoptotic cells at 12 uM after 24 hrs by AnnexinV-FITC/PI-staining based flow cytometry (reference value: 0.5%); type: functional
HepG2 [21] = assay: Induction of cell cycle arrest in human HepG2 cells assessed as accumulation at G1 phase at 2 uM after 72 hrs by PI-staining based flow cytometry (reference value: 66.9%); type: functional
HepG2 [22] = assay: Induction of cell cycle arrest in human HepG2 cells assessed as accumulation at G2 phase at 2 uM after 72 hrs by PI-staining based flow cytometry (reference value: 19.2%); type: functional
HepG2 [23] = assay: Induction of cell cycle arrest in human HepG2 cells assessed as accumulation at S phase at 2 uM after 72 hrs by PI-staining based flow cytometry (reference value: 13.9%); type: functional
HepG2 [24] = assay: Induction of cell cycle arrest in human HepG2 cells assessed as accumulation at G1 phase at 4 uM after 72 hrs by PI-staining based flow cytometry (reference value: 66.9%); type: functional
HepG2 [25] = assay: Induction of cell cycle arrest in human HepG2 cells assessed as accumulation at G2 phase at 4 uM after 72 hrs by PI-staining based flow cytometry (reference value: 19.2%); type: functional
HepG2 [26] = assay: Induction of cell cycle arrest in human HepG2 cells assessed as accumulation at S phase at 4 uM after 72 hrs by PI-staining based flow cytometry (reference value: 13.9%); type: functional
HepG2 [27] = assay: Induction of cell cycle arrest in human HepG2 cells assessed as accumulation at G1 phase at 8 uM after 72 hrs by PI-staining based flow cytometry (reference value: 66.9%); type: functional
HepG2 [28] = assay: Induction of cell cycle arrest in human HepG2 cells assessed as accumulation at G2 phase at 8 uM after 72 hrs by PI-staining based flow cytometry (reference value: 19.2%); type: functional
HepG2 [29] = assay: Induction of cell cycle arrest in human HepG2 cells assessed as accumulation at S phase at 8 uM after 72 hrs by PI-staining based flow cytometry (reference value: 13.9%); type: functional

## C=C(C)[C@@H]1CC[C@]2(COC(=O)c3nc(C)c(C)nc3C)CC[C@]3(C)[C@H](CC[C@@H]4[C@@]5(C)CC[C@H](OC(=O)CN)C(C)(C)[C@@H]5CC[C@]43C)[C@@H]12
HeLa
  IC50: 4.91 µM
HepG2 [1]
  IC50: 4.07 µM
BGC-823
  IC50: 4.24 µM
HT-29
  IC50: 6.21 µM
MDCK
  IC50: 16.1 µM
[2]
  Ratio IC50: 3.91
[3]
  mortality at 72 h, 4 µM: 8.33%
[4]
  Activity: 0%
[5]
  Activity: 4140.09 um
[6]
  Activity: Non-Toxic
[7]
  Activity: Non-Toxic
HepG2 [8]
  Activity: Active
HepG2 [9]
  Activity: Active
HepG2 [10]
  Activity: Active
HepG2 [11]
  Activity: Active
HepG2 [12]
  Activity: Active
HepG2 [13]
  Activity: Active
HepG2 [14]
  Activity: Active
HepG2 [15]
  Activity: 15.4%
HepG2 [16]
  Activity: 5.5%
HepG2 [17]
  Activity: 19.2%
HepG2 [18]
  Activity: 14.2%
HepG2 [19]
  Activity: 21.4%
HepG2 [20]
  Activity: 35.4%
HepG2 [21]
  Activity: 76.8%
HepG2 [22]
  Activity: 15.8%
HepG2 [23]
  Activity: 7.3%
HepG2 [24]
  Activity: 79.6%
HepG2 [25]
  Activity: 14.9%
HepG2 [26]
  Activity: 5.6%
HepG2 [27]
  Activity: 81.5%
HepG2 [28]
  Activity: 13.6%
HepG2 [29]
  Activity: 4.9%
